Assay results as given in the supplement of paper PMC11451515.

How the values were obtained:
Conditions in all cases: 48 h
[1] = test system: NOMO1; assay: cell viability relative to DMSO control; higher = less cytotoxic
Outline: (§1)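 Before seeding, each leukemia line was adapted for at least four passages in each medium. NOMO1 or SEM cells (500 cells/well) and P12-Ichikawa cells (1000 cells/well) went into 1536-well plates at 5 μl, then received library compounds in DMSO by pin dosing across 11 threefold concentrations, 47 μM to 0.79 nM. Readout was CellTiter-Glo One luminescence after 48 h at 37°C, and viability is given as a per-plate percentage of DMSO wells, with cell-free wells as background.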

[2] = test system: P12-Ichikawa; assay: as above
Outline: as §1

[3] = test system: SEM cells; assay: as above
Outline: as §1

[4] = test system: P12-Ichikawa; assay: AUC of viability dose-response curve (% viability x log10 dose units); higher = less sensitive
Outline: (§2)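 In 1536-well plates, leukemia cells adapted to each medium (500 or 1000 cells/well) were exposed for 48 h at 37°C to library compounds in DMSO across 11 threefold doses, 47 μM down to 0.79 nM. Viability was read by CellTiter-Glo One luminescence and normalised per plate to DMSO and cell-free wells. A four-parameter log-logistic fit over log10 doses was integrated by trapezoidal rule. This yielded the area under the curve, with over-full-viability curves scaled and quality-control failures dropped.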

[5] = test system: SEM cells; assay: as above
Outline: as §2

[6] = test system: NOMO1; assay: as above
Outline: as §2

O=C(Oc1ccc([N+](=O)[O-])cc1)N1CCC(C(O)(c2ccc3c(c2)OCO3)c2ccc3c(c2)OCO3)CC1
cell viability [%]
Conditions | [1] | [2] | [3]
HPLM + 10% dialyzed FBS, 0.000781 µM | 102 | 90 | 72.2
HPLM + 10% dialyzed FBS, 0.00234 µM | 95.5 | 95.5 | 89.4
HPLM + 10% dialyzed FBS, 0.00702 µM | 93 | 90.2 | 64.5
HPLM + 10% dialyzed FBS, 0.0211 µM | 119 | 98.7 | 97
HPLM + 10% dialyzed FBS, 0.0632 µM | 107 | 92 | 86.3
HPLM + 10% dialyzed FBS, 0.19 µM | 92.3 | 99.4 | 94.8
HPLM + 10% dialyzed FBS, 0.569 µM | 107 | 102 | 99.7
HPLM + 10% dialyzed FBS, 1.71 µM | 88.5 | 91.4 | 83.7
HPLM + 10% dialyzed FBS, 5.12 µM | 85.3 | 93.6 | 46.6
HPLM + 10% dialyzed FBS, 15.4 µM | 89.8 | 79.3 | 93.5
HPLM + 10% dialyzed FBS, 46.1 µM | 58.4 | 69.3 | 86.1
RPMI 5 mM glucose + 10% FBS, 0.000781 µM | 87.7 | 91.8 | 83.3
RPMI 5 mM glucose + 10% FBS, 0.00234 µM | 87.7 | 85 | 72
RPMI 5 mM glucose + 10% FBS, 0.00702 µM | 83 | 90.3 | 58.6
RPMI 5 mM glucose + 10% FBS, 0.0211 µM | 91.8 | 99.3 | 93.2
RPMI 5 mM glucose + 10% FBS, 0.0632 µM | 96.6 | 91.3 | 94.5
RPMI 5 mM glucose + 10% FBS, 0.19 µM | 90.1 | 91.9 | 90.4
RPMI 5 mM glucose + 10% FBS, 0.569 µM | 86.2 | 99.3 | 84
RPMI 5 mM glucose + 10% FBS, 1.71 µM | 86.3 | 90.3 | 78.6
RPMI 5 mM glucose + 10% FBS, 5.12 µM | 88.3 | 68.5 | 35.4
RPMI 5 mM glucose + 10% FBS, 15.4 µM | 88.4 | 93.7 | 99.3
RPMI 5 mM glucose + 10% FBS, 46.1 µM | 89.2 | 93.1 | 85.5
RPMI 5 mM glucose + 10% dialyzed FBS, 0.000781 µM | 73.1 | 75.9 | 90.1
RPMI 5 mM glucose + 10% dialyzed FBS, 0.00234 µM | 73.3 | 88.5 | 95
RPMI 5 mM glucose + 10% dialyzed FBS, 0.00702 µM | 86 | 86.3 | 61.6
RPMI 5 mM glucose + 10% dialyzed FBS, 0.0211 µM | 80.4 | 88.6 | 95.9
RPMI 5 mM glucose + 10% dialyzed FBS, 0.0632 µM | 90.3 | 90.2 | 88.6
RPMI 5 mM glucose + 10% dialyzed FBS, 0.19 µM | 77.9 | 90.3 | 94.7
RPMI 5 mM glucose + 10% dialyzed FBS, 0.569 µM | 84.2 | 86.4 | 97.9
RPMI 5 mM glucose + 10% dialyzed FBS, 1.71 µM | 71 | 91.8 | 99.3
RPMI 5 mM glucose + 10% dialyzed FBS, 5.12 µM | 65.6 | 73.5 | 46.3
RPMI 5 mM glucose + 10% dialyzed FBS, 15.4 µM | 74.6 | 91.1 | 96.2
RPMI 5 mM glucose + 10% dialyzed FBS, 46.1 µM | 74.5 | 84.9 | 98.2

AUC of viability dose-response curve
Conditions | HPLM + 10% dialyzed FBS | RPMI 5 mM glucose + 10% FBS | RPMI 5 mM glucose + 10% dialyzed FBS
[4] | 439 | 432 | 411
[5] | 396 | 379 | 418

CC(=O)OCCN1C(=O)c2c(C)nc3ccc([S+](=O)([O-])N4CCOCC4)cc3c2C1=O
[3], RPMI 5 mM glucose + 10% dialyzed FBS
Conditions | cell viability [%]
0.000781 µM | 112
0.00234 µM | 114
0.00702 µM | 138
0.0211 µM | 131
0.0632 µM | 129
0.19 µM | 148
0.569 µM | 156
1.71 µM | 140
5.12 µM | 152
15.4 µM | 120
46.1 µM | 142

AUC of viability dose-response curve
Conditions | HPLM + 10% dialyzed FBS | RPMI 5 mM glucose + 10% FBS | RPMI 5 mM glucose + 10% dialyzed FBS
[5] | 471 | 445 | 457
[6] | 337 | 299 | 329

CNC[C@H](O)c1cccc(O)c1
cell viability [%]
Conditions | [1] | [2] | [3]
HPLM + 10% dialyzed FBS, 0.000781 µM | 92.9 | 92 | 66.9
HPLM + 10% dialyzed FBS, 0.00234 µM | 92.1 | 95.4 | 68.9
HPLM + 10% dialyzed FBS, 0.00702 µM | 98.8 | 103 | 98.8
HPLM + 10% dialyzed FBS, 0.0211 µM | 36.8 | 12.5 | 23.9
HPLM + 10% dialyzed FBS, 0.0632 µM | 111 | 107 | 86.8
HPLM + 10% dialyzed FBS, 0.19 µM | 103 | 102 | 93.1
HPLM + 10% dialyzed FBS, 0.569 µM | 109 | 108 | 98.1
HPLM + 10% dialyzed FBS, 1.71 µM | 110 | 116 | 103
HPLM + 10% dialyzed FBS, 5.12 µM | 99 | 111 | 103
HPLM + 10% dialyzed FBS, 15.4 µM | 113 | 105 | 101
HPLM + 10% dialyzed FBS, 46.1 µM | 122 | 109 | 108
RPMI 5 mM glucose + 10% FBS, 0.000781 µM | 78.1 | 84.8 | 93
RPMI 5 mM glucose + 10% FBS, 0.00234 µM | 86.8 | 98.4 | 55.3
RPMI 5 mM glucose + 10% FBS, 0.00702 µM | 94.7 | 94.8 | 100
RPMI 5 mM glucose + 10% FBS, 0.0211 µM | 26.9 | 15.9 | 15.4
RPMI 5 mM glucose + 10% FBS, 0.0632 µM | 93 | 101 | 88.7
RPMI 5 mM glucose + 10% FBS, 0.19 µM | 89.4 | 109 | 96.7
RPMI 5 mM glucose + 10% FBS, 0.569 µM | 90.6 | 103 | 91.7
RPMI 5 mM glucose + 10% FBS, 1.71 µM | 92.8 | 109 | 78.1
RPMI 5 mM glucose + 10% FBS, 5.12 µM | 88.6 | 99.5 | 98.2
RPMI 5 mM glucose + 10% FBS, 15.4 µM | 102 | 103 | 104
RPMI 5 mM glucose + 10% FBS, 46.1 µM | 99 | 114 | 116
RPMI 5 mM glucose + 10% dialyzed FBS, 0.000781 µM | 78.3 | 84.5 | 89
RPMI 5 mM glucose + 10% dialyzed FBS, 0.00234 µM | 88.4 | 84.4 | 73
RPMI 5 mM glucose + 10% dialyzed FBS, 0.00702 µM | 98.3 | 89.1 | 89.5
RPMI 5 mM glucose + 10% dialyzed FBS, 0.0211 µM | 32.9 | 26.2 | 19.9
RPMI 5 mM glucose + 10% dialyzed FBS, 0.0632 µM | 98 | 97.9 | 111
RPMI 5 mM glucose + 10% dialyzed FBS, 0.19 µM | 102 | 99.5 | 98.8
RPMI 5 mM glucose + 10% dialyzed FBS, 0.569 µM | 101 | 101 | 101
RPMI 5 mM glucose + 10% dialyzed FBS, 1.71 µM | 87.7 | 96.3 | 110
RPMI 5 mM glucose + 10% dialyzed FBS, 5.12 µM | 82.3 | 91.2 | 110
RPMI 5 mM glucose + 10% dialyzed FBS, 15.4 µM | 91.1 | 105 | 98.4
RPMI 5 mM glucose + 10% dialyzed FBS, 46.1 µM | 103 | 98 | 111

[5]
Conditions | AUC of viability dose-response curve
HPLM + 10% dialyzed FBS | 410
RPMI 5 mM glucose + 10% FBS | 388
RPMI 5 mM glucose + 10% dialyzed FBS | 417

Cc1cc2c(cc1C1(c3ccc(C(=O)O)cn3)CC1)C(C)(C)CCC2(C)C
AUC of viability dose-response curve
Conditions | [4] | [5] | [6]
HPLM + 10% dialyzed FBS | 433 | 458 | 371
RPMI 5 mM glucose + 10% FBS | 435 | 418 | 429
RPMI 5 mM glucose + 10% dialyzed FBS | 429 | 407 | 417

CN(C)CCCN1c2ccccc2CCc2ccc(Cl)cc21
Conditions | cell viability [%]
[2], RPMI 5 mM glucose + 10% dialyzed FBS, 0.000781 µM | 71
[2], RPMI 5 mM glucose + 10% dialyzed FBS, 0.00234 µM | 155
[2], RPMI 5 mM glucose + 10% dialyzed FBS, 0.00702 µM | 125
[2], RPMI 5 mM glucose + 10% dialyzed FBS, 0.0211 µM | 145
[2], RPMI 5 mM glucose + 10% dialyzed FBS, 0.0632 µM | 138
[2], RPMI 5 mM glucose + 10% dialyzed FBS, 0.19 µM | 134
[2], RPMI 5 mM glucose + 10% dialyzed FBS, 0.569 µM | 142
[2], RPMI 5 mM glucose + 10% dialyzed FBS, 1.71 µM | 142
[2], RPMI 5 mM glucose + 10% dialyzed FBS, 5.12 µM | 134
[2], RPMI 5 mM glucose + 10% dialyzed FBS, 15.4 µM | 125
[2], RPMI 5 mM glucose + 10% dialyzed FBS, 46.1 µM | 82.9
[3], HPLM + 10% dialyzed FBS, 0.000781 µM | 122
[3], HPLM + 10% dialyzed FBS, 0.00234 µM | 132
[3], HPLM + 10% dialyzed FBS, 0.00702 µM | 122
[3], HPLM + 10% dialyzed FBS, 0.0211 µM | 134
[3], HPLM + 10% dialyzed FBS, 0.0632 µM | 118
[3], HPLM + 10% dialyzed FBS, 0.19 µM | 122
[3], HPLM + 10% dialyzed FBS, 0.569 µM | 125
[3], HPLM + 10% dialyzed FBS, 1.71 µM | 122
[3], HPLM + 10% dialyzed FBS, 5.12 µM | 105
[3], HPLM + 10% dialyzed FBS, 15.4 µM | 109
[3], HPLM + 10% dialyzed FBS, 46.1 µM | 39.6

AUC of viability dose-response curve
Conditions | HPLM + 10% dialyzed FBS | RPMI 5 mM glucose + 10% FBS | RPMI 5 mM glucose + 10% dialyzed FBS
[5] | 453 | 453 | 452
[6] | 431 | 448 | 441
